In ChEMBL document CHEMBL3046666, “Design, synthesis, and biological evaluation of benzofuran derivatives as ET receptor antagonists” (Med Chem Res, 2013):
Activity calls are given as the source filed them. The calls are words filed in the database; no cut-off is given here. Square brackets hold non-standard residues; d marks the D form. Peptide text beside a SMILES is read from it.

Legend:
[1] = biological target: T1, Endothelin-1 receptor (Rattus norvegicus) (UniProt P26684); assay: Antagonist activity at ETA receptor in Sprague-Dawley Rattus norvegicus (rat) thoracic aortic ring assessed as inhibition of ET1-induced thoracic aortic ring contraction at 10 uM after 30 min relative to control
T1 sequence (whole entry): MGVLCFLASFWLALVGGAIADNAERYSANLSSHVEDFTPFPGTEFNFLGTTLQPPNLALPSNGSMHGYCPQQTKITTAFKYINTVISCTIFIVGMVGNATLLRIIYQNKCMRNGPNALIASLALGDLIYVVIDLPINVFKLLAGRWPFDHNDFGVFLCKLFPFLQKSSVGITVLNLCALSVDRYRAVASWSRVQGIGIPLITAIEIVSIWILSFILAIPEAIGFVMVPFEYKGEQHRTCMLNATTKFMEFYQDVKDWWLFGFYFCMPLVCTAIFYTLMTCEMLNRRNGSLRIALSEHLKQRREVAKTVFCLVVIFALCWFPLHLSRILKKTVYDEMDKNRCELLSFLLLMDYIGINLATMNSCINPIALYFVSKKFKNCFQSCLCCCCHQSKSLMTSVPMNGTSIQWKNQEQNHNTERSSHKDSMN

Endothelin-1 receptor [2] = biological target: T2, Endothelin-1 receptor (Homo sapiens, UniProt P25101); assay: Antagonist activity at ETA receptor (unknown origin)
T2 sequence (P25101 whole entry): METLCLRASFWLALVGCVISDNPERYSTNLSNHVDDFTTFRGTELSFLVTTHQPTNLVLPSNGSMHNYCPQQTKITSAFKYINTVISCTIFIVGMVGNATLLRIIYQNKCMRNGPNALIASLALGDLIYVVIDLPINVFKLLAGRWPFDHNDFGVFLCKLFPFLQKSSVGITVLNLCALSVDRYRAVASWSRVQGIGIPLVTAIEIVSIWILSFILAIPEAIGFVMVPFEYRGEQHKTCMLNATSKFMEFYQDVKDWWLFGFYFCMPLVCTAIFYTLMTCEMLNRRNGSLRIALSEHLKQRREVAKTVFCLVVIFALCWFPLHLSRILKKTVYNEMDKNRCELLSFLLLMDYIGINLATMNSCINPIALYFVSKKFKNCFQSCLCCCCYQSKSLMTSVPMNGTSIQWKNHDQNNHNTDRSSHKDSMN

Endothelin-1 receptor [3] = biological target: T2, Endothelin-1 receptor; assay: Antagonist activity at Homo sapiens (human) ETA receptor
Endothelin-1 receptor [4] = biological target: T3, Endothelin-1 receptor (Rattus norvegicus, UniProt P26684); assay: Displacement of [125I]ET-1 from ETA receptor in Sprague-Dawley Rattus norvegicus (rat) myocardium after 1 hr
T3 sequence (P26684 whole entry): T1 sequence (whole entry)

[5] = biological target: T4, Endothelin receptor type B (Rattus norvegicus, UniProt P21451); assay: Displacement of [125I]ET-1 from ETB receptor in Sprague-Dawley Rattus norvegicus (rat) myocardium after 1 hr
T4 sequence (P21451 whole entry): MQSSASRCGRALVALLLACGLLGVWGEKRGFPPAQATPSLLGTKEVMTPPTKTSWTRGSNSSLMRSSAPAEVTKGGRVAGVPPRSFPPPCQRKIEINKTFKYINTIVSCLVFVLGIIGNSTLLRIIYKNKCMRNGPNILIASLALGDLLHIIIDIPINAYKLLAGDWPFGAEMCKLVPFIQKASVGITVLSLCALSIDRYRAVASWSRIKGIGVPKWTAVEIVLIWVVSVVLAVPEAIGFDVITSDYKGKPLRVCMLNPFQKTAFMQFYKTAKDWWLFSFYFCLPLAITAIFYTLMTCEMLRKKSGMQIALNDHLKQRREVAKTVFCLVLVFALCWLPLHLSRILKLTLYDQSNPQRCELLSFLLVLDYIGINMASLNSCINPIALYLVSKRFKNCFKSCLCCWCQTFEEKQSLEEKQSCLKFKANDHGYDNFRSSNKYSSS

Rattus norvegicus [6] = organism: Rattus norvegicus; assay: Selectivity Rattus norvegicus (rat)io of IC50 for ETB receptor in Sprague-Dawley Rattus norvegicus (rat) myocardium to IC50 for ETA receptor in Sprague-Dawley Rattus norvegicus (rat) myocardium; format: tissue-based
Rattus norvegicus [7] = assay: Antihypertensive activity in po dosed hypoxic pulmonary arterial Sprague-Dawley Rattus norvegicus (rat) model assessed as decrease in hypoxia-induced central vein pressure administered for 28 days measured on day 29 by hemodynamic analyzer relative to untreated control; format: functional, organism-based; conditions: Artery
Rattus norvegicus [8] = assay: Antihypertensive activity in po dosed hypoxic pulmonary arterial Sprague-Dawley Rattus norvegicus (rat) model assessed as decrease in hypoxia-induced right ventricular systolic pressure administered for 28 days measured on day 29 by hemodynamic analyzer relative to untreated control; format: functional, organism-based; conditions: Heart right ventricle
Rattus norvegicus [9] = assay: Antihypertensive activity in hypoxic pulmonary arterial Sprague-Dawley Rattus norvegicus (rat) model assessed as decrease in hypoxia-induced right ventricular systolic pressure at 10 mg/kg, po administered for 28 days measured on day 29 by hemodynamic analyzer relative to untreated control; format: functional, organism-based; design: dose 10 mg/kg; conditions: Heart right ventricle
Rattus norvegicus [10] = assay: Antihypertensive activity in hypoxic pulmonary arterial Sprague-Dawley Rattus norvegicus (rat) model assessed as decrease in hypoxia-induced central vein pressure at 10 mg/kg, po administered for 28 days measured on day 29 by hemodynamic analyzer relative to untreated control; format: functional, organism-based; design: dose 10 mg/kg; conditions: Artery

Row | Structure (SMILES) | inhibition [1] [%] | also measured
1 | Cc1c(C(=O)O)oc2cccc(OC(CCC(=O)O)c3ccccc3)c12 (stereo not drawn) | 44 | 
2 | Cc1c(C(=O)O)oc2cccc(OC/C=C/c3ccccc3)c12 | 50 | 
3 | COc1cccc2oc(C(=O)O)c(C)c12 |  | IC50 (Endothelin-1 receptor [2]): 11000 nM
4 | CCCCOc1cccc2oc(C(=O)O)c(C)c12 | 56.7 | 
5 | CC(C)C[C@@H]1NC(=O)[C@@H](C(C)C)NC(=O)[C@@H]2CCCN2C(=O)[C@@H](CC(=O)O)NC(=O)[C@@H](Cc2c[nH]c3ccccc23)NC1=O [BQ-123] (cyclo(L[dW][dD]P[dV])) | 68.1 | IC50 (Endothelin-1 receptor [3]): 37 nM; IC50 (Endothelin-1 receptor [4]): 28 nM
6 | CCCOc1cccc2oc(C(=O)O)c(C)c12 | 69.7 | 
7 | Cc1c(C(=O)O)oc2cccc(OCc3ccccc3)c12 | 40.7 | IC50 (Endothelin-1 receptor [2]): 3800 nM
8 | CCOc1cccc2oc(C(=O)O)c(C)c12 | 61 | 
9 | Cc1c(C(=O)O)oc2cccc(OCc3ccc4nonc4c3)c12 | 70 | IC50 [5]: 1070 nM; Ratio IC50 (Rattus norvegicus [6]): 27; IC50 (Endothelin-1 receptor [4]): 39 nM
10 | Cc1ccc(OCCOc2cccc3oc(C(=O)O)c(C)c23)cc1 | 40.8 | 
11 | Cc1c(C(=O)O)oc2cccc(OC(C(=O)O)c3ccccc3)c12 (stereo not drawn) | 29 | 
12 | Cc1c(C(=O)O)oc2cccc(OCCN3CCCC3)c12 | 34.1 | Activity (Rattus norvegicus [7]): Dose-dependent effect; Activity (Rattus norvegicus [8]): Dose-dependent effect
13 | COC(=O)C1=C(C)NC(C)=C(C(=O)OC)C1c1ccccc1[N+](=O)[O-] |  | Activity (Rattus norvegicus [9]): Active; Activity (Rattus norvegicus [10]): Active
14 | Cc1c(C(=O)O)oc2cccc(OCc3ccc4nsnc4c3)c12 | 82.2 | IC50 [5]: 930 nM; Ratio IC50 (Rattus norvegicus [6]): 40; IC50 (Endothelin-1 receptor [4]): 23 nM
15 | CCCCCOc1cccc2oc(C(=O)O)c(C)c12 | 46.8 | 
16 | Cc1c(C(=O)O)oc2cccc(OCCOc3cccc(Cl)c3)c12 | 21.7 | 
